Results as given in PMC7115582 (European Journal of Medicinal Chemistry, 2018).

System: lentiviral pseudoparticles carrying H1-HA and N1-NA (from A/PR/8/34)
Type: cell-based, influenza A virus
Conditions: control compounds; MDCK cells; Fig. 3

Structure (SMILES) | inhibition of pseudoparticle entry, in words
CC(C)c1ccccc1NCCN1CCCCC1.Cl [Compound 80] | Strong and dose-dependent inhibition
COC(=O)[C@@H]1NC(=O)[C@@H]2NC(=O)[C@H](NC(=O)[C@@H]3NC(=O)[C@H]4NC(=O)[C@H](NC(=O)[C@H](Nc5c(NCc6ccc(-c7ccccc7)cc6)c(=O)c5=O)c5ccc(O)c(c5)Oc5cc4cc(O)c5C)[C@H](O)c4ccc(cc4)Oc4cc3cc(c4O)Oc3ccc(cc3)[C@H]2O)c2ccc(O)c(c2)-c2c(O)cc(O)cc21 [SA-19] | Strong and dose-dependent inhibition
CCc1ccccc1OCCN1CCCCCC1 [Compound 81] | Strong and dose-dependent inhibition
CCN(CC)CCCC(C)Nc1ccnc2cc(Cl)ccc12 (stereo not shown) [chloroquine] | Strong and dose-dependent inhibition
